Laboratory results: patent publication US10195155B2, “Drug carrier for tumor-specific targeted drug delivery and use thereof” (Institute of Biophysics, Chinese Academy of Sciences, priority 2014, dated 2019)

Columns and labels:
[1] = Maximal tolerated dosage in healthy mice, single administration; details: HFn-Dox by Dox equivalent
Excerpt: In the therapy of a cancer patient, the dosage of administration and the number of administration were very important. However, bound by toxic side effects of chemotherapeutic drugs, the therapy of cancer usually became administration in a small amount at a high frequency.

[2] = tested on: HT-29 implanted tumor; assay: Anti-tumor pharmacodynamics in nude mice bearing HT-29 implanted tumor; details: single tail vein dose
Experimental: 40 female BALB/c nude mice bearing HT-29 implanted tumor were randomly divided into five groups. When the volume of the implanted tumor was up to about 100 square millimeters, drugs were injected to all of tumor-bearing mice through the tail vein. […] Since the maximal tolerated dosage of mice to free Doxorubicin was 5 mg/kg mouse body weight, the administration dosage of the free Doxorubicin group was 5 mg/kg mouse body weight. […] Measurements of body weights and tumors of mice were three times per week.

In the case of `COc1cccc2c1C(=O)c1c(O)c3c(c(O)c1C2=O)C[C@@](O)(C(=O)CO)C[C@@H]3O[C@H]1C[C@H](N)[C@H](O)[C@H](C)O1` [free Doxorubicin, Doxorubicin], the maximal tolerated dosage [1] is reported as 5 mg/kg, the “average survival time of tumor-bearing mice” value ([2]; free Dox 5 mg/kg, Doxil 20 mg/kg) is reported as 18 days and the tumor growth inhibition ([2]; free Doxorubicin 5 mg/kg, HFn-Dox and Doxil 20 mg/kg, 40-day window) is reported as “almost no inhibitory effect”.
